In patent US9248109B2, “High penetration prodrug compositions of peptides and peptide-related compounds” (priority 2009, dated 2016):
Where a name gives a salt, the structure may show the parent alone. Non-standard residues stand in square brackets, D forms with d. Residues, ends and D or L forms follow the SMILES beside them. *: point of attachment. Arg(NO2) = N=C(NCCC[C@H](N)C(=O)O)N[N+](=O)[O-]; X1 = CCCCO*

Key:
Sprague Dawley rats = test: Anti-obese activity, transdermal, female Sprague Dawley rats 15 weeks old (first experiment); format: in vivo, rat; details: for Weight (g) (Day 1): baseline; for effect on body weights of rats (in words): 10, 1 or 0.3 mg/kg transdermal twice per day for 30 days; for effect on food intakes and body weights (in words): administrated transdermally, as low as 0.3 mg/kg in rat, SD rats and DB/DB mice
Description: (§1) In a first experiment, 40 female Sprague Dawley rats (15 weeks old, 318-346 g) were divided into 4 groups. In group A, 0.2 ml of water was administered to the back of rat (n=10) twice per day for 30 days. In Groups B, C, and D, 10 mg/kg, 1 mg/kg, or 0.3 mg/kg of H-Val-Pro-Gly-Pro-Arg(NO2)—OCH(CH3)2.HCl(SEQ ID NO: 197) in 0.2 ml of water was administered transdermally to the back of rat (n=10) twice per day for 30 days respectively.
as §1, with “Dawley (SD)” for “Dawley”, “315-340” for “318-346”, “H-Val-Pro-Gly-Pro-Arg(diAc)-OCH2CH2CH2CH3.HCl(SEQ” for “H-Val-Pro-Gly-Pro-Arg(NO2)—OCH(CH3)2.HCl(SEQ”, “198)” for “197)”
as §1, with “Dawley (SD)” for “Dawley”, “320-345” for “318-346”, “H-Ala-Pro-Gly-Pro-Arg(NO2)—OCH2CH2CH2CH3.HCl(SEQ” for “H-Val-Pro-Gly-Pro-Arg(NO2)—OCH(CH3)2.HCl(SEQ”, “199)” for “197)”
as §1, with “Dawley (SD)” for “Dawley”, “320-350” for “318-346”, “H-Val-Pro-Asp(OEt)-Pro-Arg(NO2)—OCH2CH2CH2CH3.HCl(SEQ” for “H-Val-Pro-Gly-Pro-Arg(NO2)—OCH(CH3)2.HCl(SEQ”, “200)” for “197)”

obese mice (SLAC/DB/DB) = test: Anti-obese activity, transdermal, obese female DB/DB mice (third experiment); format: in vivo, mouse; details: for Weight (g) (Day 1) / Blood Glucose Levels (day 1) (mg/dL, no fasting): baseline; for effect on body weights and blood glucose levels of obese mice (in words): 15, 1.5 and 0.5 mg/kg transdermal twice per day for 30 days
Description: (§2) In a third experiment, 40 obese female DB/DB mice (SLAC/DB/DB mice, 16 weeks old, 55-60 g) were divided into 4 groups. In group A, 0.1 ml of water was administered to the back of mouse (n=10) twice per day for 30 days. In Groups B, C, and D, 15 mg/kg, 1.5 mg/kg, and 0.5 mg/kg of H-Val-Pro-Gly-Pro-Arg(NO2)-OCH(CH3)2.HCl(SEQ ID NO: 197) in 0.1 ml of water was administered transdermally to the back of mouse (n=10) twice per day for 30 days respectively.
as §2, with “(SLAC/DB/DB) mice (16” for “(SLAC/DB/DB mice, 16”, “H-Val-Pro-Gly-Pro-Arg(diAc)-OCH2CH2CH2CH3.HCl(SEQ” for “H-Val-Pro-Gly-Pro-Arg(NO2)-OCH(CH3)2.HCl(SEQ”, “198)” for “197)”
as §2, with “(SLAC/DB/DB) mice (16” for “(SLAC/DB/DB mice, 16”, “53-61” for “55-60”, “H-Ala-Pro-Gly-Pro-Arg(NO2)—OCH2CH2CH2CH3.HCl(SEQ” for “H-Val-Pro-Gly-Pro-Arg(NO2)-OCH(CH3)2.HCl(SEQ”, “199)” for “197)”
as §2, with “(SLAC/DB/DB) mice (16” for “(SLAC/DB/DB mice, 16”, “53-61” for “55-60”, “H-Val-Pro-Asp(OEt)-Pro-Arg(NO2)-OCH2CH2CH2CH3.HCl(SEQ” for “H-Val-Pro-Gly-Pro-Arg(NO2)-OCH(CH3)2.HCl(SEQ”, “200)” for “197)”

[1] = 0.3 mg/kg transdermal twice per day for 30 days
[2] = 0.3 mg/kg transdermal twice per day
[3] = 1 mg/kg transdermal twice per day for 30 days
[4] = 1 mg/kg transdermal twice per day
[5] = 10 mg/kg transdermal twice per day for 30 days
[6] = 10 mg/kg transdermal twice per day
[7] = 0.5 mg/kg transdermal twice per day for 30 days
[8] = 0.5 mg/kg transdermal twice per day
[9] = 1.5 mg/kg transdermal twice per day for 30 days
[10] = 1.5 mg/kg transdermal twice per day
[11] = 15 mg/kg transdermal twice per day for 30 days
[12] = 15 mg/kg transdermal twice per day

| Molecule | Food intake (per day & per rat) (Sprague Dawley rats; [1]) | Weight (g) (Day 30) (Sprague Dawley rats; [1]) | Weight (g) (Day 1) (Sprague Dawley rats; [2]) | Food intake (per day & per rat) (Sprague Dawley rats; [3]) | Weight (g) (Day 30) (Sprague Dawley rats; [3]) | Weight (g) (Day 1) (Sprague Dawley rats; [4]) | Food intake (per day & per rat) (Sprague Dawley rats; [5]) | Weight (g) (Day 30) (Sprague Dawley rats; [5]) | Weight (g) (Day 1) (Sprague Dawley rats; [6]) | effect on body weights of rats (in words) (Sprague Dawley rats) | effect on food intakes and body weights (in words) (Sprague Dawley rats) | Weight (g) (Day 30) (obese mice (SLAC/DB/DB); [7]) | Blood Glucose Levels (day 30) (mg/dL, no fasting) (obese mice (SLAC/DB/DB); [7]) | Weight (g) (Day 1) (obese mice (SLAC/DB/DB); [8]) | Blood Glucose Levels (day 1) (mg/dL, no fasting) (obese mice (SLAC/DB/DB); [8]) | Weight (g) (Day 30) (obese mice (SLAC/DB/DB); [9]) | Blood Glucose Levels (day 30) (mg/dL, no fasting) (obese mice (SLAC/DB/DB); [9]) | Weight (g) (Day 1) (obese mice (SLAC/DB/DB); [10]) | Blood Glucose Levels (day 1) (mg/dL, no fasting) (obese mice (SLAC/DB/DB); [10]) | Weight (g) (Day 30) (obese mice (SLAC/DB/DB); [11]) | further results |
| --- | --- | --- | --- | --- | --- | --- | --- | --- | --- | --- | --- | --- | --- | --- | --- | --- | --- | --- | --- | --- | --- |
| CCCCOC(=O)[C@H](CCCNC(=N)N[N+](=O)[O-])NC(=O)[C@@H]1CCCN1C(=O)CNC(=O)[C@@H]1CCCN1C(=O)[C@H](C)N [H-Ala-Pro-Gly-Pro-Arg(NO2)—OCH2CH2CH2CH3.HCl] (HELM PEPTIDE1{A.P.G.P.[N=C(NCCC[C@H](N[*:1])C(=O)[*:2])N[N+](=O)[O-]].[CCCCO[*:1]]}$$$$V2.0) | 22.7 ± 1.8 | 335.1 ± 4.8 g | 335.1 ± 6.2 g | 21.8 ± 2.3 | 323.7 ± 4.4 g | 333.6 ± 7.8 g | 20.8 ± 2.4 | 315.4 ± 3.8 g | 332.2 ± 7.4 g | reduced body weights of rats effectively | reduced food intakes and body weights | 54.7 ± 2.7 g | 159.4 ± 24.4 mg/dL | 58.4 ± 2.9 g | 197.6 ± 28.2 mg/dL | 53.3 ± 3.2 g | 148.4 ± 16.4 mg/dL | 57.1 ± 2.8 g | 199.4 ± 23.7 mg/dL | 51.9 ± 2.7 g | Blood Glucose Levels (day 30) (mg/dL, no fasting) (obese mice (SLAC/DB/DB); [11]): 139.5 ± 15.9 mg/dL; Weight (g) (Day 1) (obese mice (SLAC/DB/DB); [12]): 57.2 ± 2.2 g; Blood Glucose Levels (day 1) (mg/dL, no fasting) (obese mice (SLAC/DB/DB); [12]): 202.4 ± 21.4 mg/dL; effect on body weights and blood glucose levels of obese mice (in words) (obese mice (SLAC/DB/DB)): reduced body weights and blood glucose levels of obese mice effectively |
| CCCCOC(=O)[C@H](CCCNC(=N)N[N+](=O)[O-])NC(=O)[C@@H]1CCCN1C(=O)[C@H](CC(=O)OCC)NC(=O)[C@@H]1CCCN1C(=O)[C@@H](N)C(C)C [H-Val-Pro-Asp(OEt)-Pro-Arg(NO2)—OCH2CH2CH2CH3.HCl] (H-VPD(OEt)P[Arg(NO2)]-X1) | 22.7 ± 2.5 | 333.1 ± 3.9 g | 333.5 ± 7.1 g | 21.9 ± 2.7 | 326.8 ± 2.8 g | 329.8 ± 7.8 g | 20.1 ± 3.2 | 318.1 ± 3.9 g | 330.5 ± 8.2 g | reduced body weights of rats effectively | reduced food intake and body weights | 56.7 ± 2.8 g | 171.8 ± 28.4 mg/dL | 58.7 ± 3.3 g | 199.6 ± 31.5 mg/dL | 54.3 ± 2.9 g | 152.4 ± 26.8 mg/dL | 58.8 ± 3.1 g | 203.4 ± 25.8 mg/dL | 52.4 ± 3.4 g | Blood Glucose Levels (day 30) (mg/dL, no fasting) (obese mice (SLAC/DB/DB); [11]): 145.4 ± 25.7 mg/dL; Weight (g) (Day 1) (obese mice (SLAC/DB/DB); [12]): 57.9 ± 3.8 g; Blood Glucose Levels (day 1) (mg/dL, no fasting) (obese mice (SLAC/DB/DB); [12]): 203.4 ± 27.4 mg/dL; effect on body weights and blood glucose levels of obese mice (in words) (obese mice (SLAC/DB/DB)): reduced body weights and blood glucose levels of obese mice effectively |
| CC(C)OC(=O)[C@H](CCCNC(=N)N[N+](=O)[O-])NC(=O)[C@@H]1CCCN1C(=O)CNC(=O)[C@@H]1CCCN1C(=O)[C@@H](N)C(C)C [H-Val-Pro-Gly-Pro-Arg(NO2)-OCH(CH3)2•HCl, H-Val-Pro-Gly-Pro-Arg(NO2)—OCH(CH3)2.HCl] (HELM PEPTIDE1{V.P.G.P.[N=C(NCCC[C@H](N[*:1])C(=O)[*:2])N[N+](=O)[O-]].[CC(C)O[*:1]]}$$$$V2.0) | 22.1 ± 2.5 | 322.1 ± 4.3 g | 335.4 ± 5.2 g | 21.1 ± 2.7 | 313.7 ± 5.1 g | 333.1 ± 5.1 g | 19.9 ± 2.9 | 308.4 ± 4.5 g | 331.7 ± 6.2 g | reduced body weights of rats effectively | reduced food intakes and body weights | 54.2 ± 2.9 g | 153.4 ± 26.4 mg/dL | 56.2 ± 2.7 g | 199.7 ± 26.8 mg/dL | 52.3 ± 1.9 g | 142.4 ± 18.7 mg/dL | 57.2 ± 2.1 g | 201.4 ± 23.1 mg/dL | 52.1 ± 2.2 g | Blood Glucose Levels (day 30) (mg/dL, no fasting) (obese mice (SLAC/DB/DB); [11]): 137.4 ± 25.2 mg/dL; Weight (g) (Day 1) (obese mice (SLAC/DB/DB); [12]): 57.7 ± 1.6 g; Blood Glucose Levels (day 1) (mg/dL, no fasting) (obese mice (SLAC/DB/DB); [12]): 206.4 ± 21.8 mg/dL; effect on body weights and blood glucose levels of obese mice (in words) (obese mice (SLAC/DB/DB)): reduced body weights and blood glucose levels of obese mice effectively |
| H-Val-Pro-Gly-Pro-Arg(diAc)-OCH2CH2CH2CH3.HCl | 23.0 ± 1.7 | 347.1 ± 5.7 g | 333.1 ± 6.1 g | 21.9 ± 1.9 | 336.7 ± 5.6 g | 331.6 ± 6.6 g | 20.9 ± 2.2 | 329.2 ± 4.8 g | 334.1 ± 7.5 g | reduced body weights of rats effectively | reduced food intakes and body weights | 59.3 ± 3.2 g | 179.4 ± 21.1 mg/dL | 57.9 ± 2.7 g | 196.9 ± 29.8 mg/dL | 58.3 ± 2.9 g | 166.4 ± 20.8 mg/dL | 57.6 ± 3.8 g | 195.4 ± 36.7 mg/dL | 54.7 ± 3.8 g | Blood Glucose Levels (day 30) (mg/dL, no fasting) (obese mice (SLAC/DB/DB); [11]): 152.4 ± 17.9 mg/dL; Weight (g) (Day 1) (obese mice (SLAC/DB/DB); [12]): 56.7 ± 2.7 g; Blood Glucose Levels (day 1) (mg/dL, no fasting) (obese mice (SLAC/DB/DB); [12]): 201.5 ± 24.6 mg/dL; effect on body weights and blood glucose levels of obese mice (in words) (obese mice (SLAC/DB/DB)): reduced body weights and blood glucose levels of obese mice effectively |
